Experimental data: patent US20030110524A1, “TRANSGENIC ORGANISMS AND THEIR USES” (priority 1997, published 2003)

Legend:
[1] = system: lung fibroblast cells derived from TG/TK/neo^r transgenic rats; experiment: Survival of lung fibroblast cells from TG/TK/neo^r transgenic rats with drugs; type: cell-based, rat; conditions: TG/TK/neo^r rat cells, drugs added at day 2, geneticin 400 μg/ml, 5FC 100 μg/ml
Method: (§1) Fibroblast cultures derived from lung of adult CD2/neo^r, TG/TK/neo^r and control animals were produced and expanded by routine methods (Freshney (1987), Alan R. Liss, New York). Twenty-four hours after plating, geneticin (400 μg/ml) was added to cultures originating from both types of transgenic rats and from control rats, and replaced every three days with fresh medium. When required, cells were subcultured (1:3) to prevent them becoming confluent, again by basic culture methods (Freshney 1987). Cell counts were made manually in 20 fields chosen randomly and the values at each time point, after allowing for changes due to subculturing, were aggregated. […] In the absence of added geneticin, no change in cell survival from either of the transgenic animals was observed.
(§2) The effects of 5-fluorocytosine (5FC) were also determined. 5-fluorocytosine at a concentration of 100 μg/ml had no effect on fibroblast cells derived from control animals or from the TG/TK/neo^r transgenic. In the cells derived from the CD2/neo^r transgenic animal, however, 94% of the originally-plated cells died, or were non-functional (as determined by their failure to exclude trypan blue) after 10 days culture in the presence of 5FC (Table 2).
(§3) Drugs were added at day 2 in culture. Values are related to the number of cells found in control cultures without drug additions at various times after plating, and allowing for dilutions resulting from passaging. Figures are the means of three separate determinations, the standard errors all being less than 15% of the mean.

[2] = system: thyroid cells derived from TG/TK/neo^r transgenic rats; experiment: Survival of thyroid cells from TG/TK/neo^r transgenic rats with drugs; type: cell-based, rat; conditions: TG/TK/neo^r rat cells, drugs added at day 2, geneticin 400 μg/ml, ACG 10 μg/ml
Method: (§4) Thyroid cultures derived from the thyroid gland of adult CD2/neo^r, TG/TK/neo^r and control animals were produced by routine methods (Freshney, 1987). Twenty-four hours after plating, geneticin (400 μg/ml) was added to cultures originating from both types of transgenic and the control rats, and replaced every three days with fresh medium. When required, cells were subcultured (1:2) to prevent their becoming confluent. Cell counts were made manually in 20 fields chosen randomly, and the values at each time point, after allowing for changes due to subculturing, were aggregated (Table 3). […] Ten days later, cell counts were again made of 20 fields chosen at random. […] The results were as expected in view of the specific and non-specific expression of the positive and negative selection markers, in the TG/TK/neo^r and CD2/neo^r transgenics, respectively.
as §3, with “allow” for “allowing”

[3] = system: thyroid cells derived from CD2/neo^r transgenic rats; experiment: Survival of thyroid cells from CD2/neo^r transgenic rats with drugs; type: cell-based; conditions: CD2/neo^r rat cells, drugs added at day 2, geneticin 400 μg/ml, ACG 10 μg/ml
Method: as §4
as §3, with “allow” for “allowing”

[4] = system: lung fibroblast cells derived from CD2/neo^r transgenic rats; experiment: Survival of lung fibroblast cells from CD2/neo^r transgenic rats with drugs; type: cell-based, rat; conditions: CD2/neo^r rat cells, drugs added at day 2, geneticin 400 μg/ml, 5FC 100 μg/ml
Method: as §1, §2, §3

[5] = system: spinal cord cells derived from the CD2-neo^r transgenic rat; experiment: Survival and development of spinal cord cells from the CD2-neo^r transgenic rat under geneticin; type: cell-based; conditions: geneticin 1 mg/ml; 60 days in vitro
Method: Cultures of spinal cord cells derived from the CD2-neo^r transgenic rat were grown in small flasks, using previously established methods (Foster et al., (1990) Eur. J. Neurosci. 3, 32-39). At the beginning of the experimental period, in the region of 100 yeast spores, and unknown amounts of other common laboratory microbiological contaminants, were introduced into the flask. At the same time geneticin (1 mg/ml) was added. Thereafter, all manipulations of the medium and additions to the flask were conducted outside the sterile environment of the laminar flow cabinet.

[6] = system: thyroid cells derived from control rats; experiment: Survival of thyroid cells from control rats with drugs; type: cell-based, rat; conditions: control rat cells, drugs added at day 2, geneticin 400 μg/ml, ACG 10 μg/ml
Method: as §4
as §3, with “allow” for “allowing”

[7] = system: lung fibroblast cells derived from control rats; experiment: Survival of lung fibroblast cells from control rats with drugs; type: cell-based, rat; conditions: control rat cells, drugs added at day 2, geneticin 400 μg/ml, 5FC 100 μg/ml
Method: as §1, §2, §3

For `CN[C@@H]1[C@@H](O)[C@@H](O[C@@H]2[C@@H](O)[C@H](O[C@H]3O[C@H]([C@@H](C)O)[C@@H](O)[C@H](O)[C@H]3N)[C@@H](N)C[C@H]2N)OC[C@]1(C)O` [geneticin], the “Survival of lung fibroblast cells (related to number of cells in control cultures without drug)” value ([1]; day 1 in culture) was 97, the “Survival of lung fibroblast cells (related to number of cells in control cultures without drug)” value ([1]; day 3 in culture) was 105 and the “Survival of lung fibroblast cells (related to number of cells in control cultures without drug)” value ([1]; day 5 in culture) was 108. The “Survival of lung fibroblast cells (related to number of cells in control cultures without drug)” value ([1]; day 7 in culture) was 101, the “Survival of lung fibroblast cells (related to number of cells in control cultures without drug)” value ([1]; day 9 in culture) was 105 and the “Survival of lung fibroblast cells (related to number of cells in control cultures without drug)” value ([1]; day 11 in culture) was 111. The “Survival of thyroid cells (related to number of cells in control cultures without drug)” value ([2]; day 1 in culture) was 104, the “Survival of thyroid cells (related to number of cells in control cultures without drug)” value ([2]; day 3 in culture) was 105 and the “Survival of thyroid cells (related to number of cells in control cultures without drug)” value ([2]; day 5 in culture) was 98. The “Survival of thyroid cells (related to number of cells in control cultures without drug)” value ([2]; day 7 in culture) was 88, the “Survival of thyroid cells (related to number of cells in control cultures without drug)” value ([2]; day 9 in culture) was 93 and the “Survival of thyroid cells (related to number of cells in control cultures without drug)” value ([2]; day 11 in culture) was 98. The “Survival of thyroid cells (related to number of cells in control cultures without drug)” value ([3]; day 1 in culture) was 91, the “Survival of thyroid cells (related to number of cells in control cultures without drug)” value ([3]; day 3 in culture) was 94 and the “Survival of thyroid cells (related to number of cells in control cultures without drug)” value ([3]; day 5 in culture) was 91. The “Survival of thyroid cells (related to number of cells in control cultures without drug)” value ([3]; day 7 in culture) was 93, the “Survival of thyroid cells (related to number of cells in control cultures without drug)” value ([3]; day 9 in culture) was 107 and the “Survival of thyroid cells (related to number of cells in control cultures without drug)” value ([3]; day 11 in culture) was 105. The “Survival of lung fibroblast cells (related to number of cells in control cultures without drug)” value ([4]; day 1 in culture) was 91, the “Survival of lung fibroblast cells (related to number of cells in control cultures without drug)” value ([4]; day 3 in culture) was 94 and the “Survival of lung fibroblast cells (related to number of cells in control cultures without drug)” value ([4]; day 5 in culture) was 91. The “Survival of lung fibroblast cells (related to number of cells in control cultures without drug)” value ([4]; day 7 in culture) was 93, the “Survival of lung fibroblast cells (related to number of cells in control cultures without drug)” value ([4]; day 9 in culture) was 107 and the “Survival of lung fibroblast cells (related to number of cells in control cultures without drug)” value ([4]; day 11 in culture) was 105. The “Survival and development of the neural cells compared to uninfected control cells grown without geneticin” value [5] was “appeared unimpaired”, the “Survival of thyroid cells (related to number of cells in control cultures without drug)” value ([6]; day 1 in culture) was 95 and the “Survival of thyroid cells (related to number of cells in control cultures without drug)” value ([6]; day 3 in culture) was 91. The “Survival of thyroid cells (related to number of cells in control cultures without drug)” value ([6]; day 5 in culture) was 85, the “Survival of thyroid cells (related to number of cells in control cultures without drug)” value ([6]; day 7 in culture) was 56 and the “Survival of thyroid cells (related to number of cells in control cultures without drug)” value ([6]; day 9 in culture) was 9. For the same compound, the “Survival of thyroid cells (related to number of cells in control cultures without drug)” value ([6]; day 11 in culture) was 4, the “Survival of lung fibroblast cells (related to number of cells in control cultures without drug)” value ([7]; day 1 in culture) was 99 and the “Survival of lung fibroblast cells (related to number of cells in control cultures without drug)” value ([7]; day 3 in culture) was 101. The “Survival of lung fibroblast cells (related to number of cells in control cultures without drug)” value ([7]; day 5 in culture) was 85, the “Survival of lung fibroblast cells (related to number of cells in control cultures without drug)” value ([7]; day 7 in culture) was 23 and the “Survival of lung fibroblast cells (related to number of cells in control cultures without drug)” value ([7]; day 9 in culture) was 5. The “Survival of lung fibroblast cells (related to number of cells in control cultures without drug)” value ([7]; day 11 in culture) was 2.
